Assay results: article PMC5224920, “Assessing the mechanism and therapeutic potential of modulators of the human Mediator complex-associated protein kinases” (eLife, 2016)

Tested on: 12 single or co-culture in vitro tissue models of primary cells
Assay: Culture/co-culture cell model panel, extracellular biomarkers (DiscoveRx); as to CCL2/MCP-1: reference of the scale not given here; as to CD38: reference of the scale not given here; as to CD40: reference of the scale not given here; as to CD69: reference of the scale not given here; as to CXCL8/IL-8: reference of the scale not given here; as to CXCL9/MIG: reference of the scale not given here; as to IL-1alpha: reference of the scale not given here; as to M-CSF: reference of the scale not given here; as to PBMC Cytotoxicity: reference of the scale not given here
Format: cell-based, human
[1] = /Mphg Huvec+macrophages, 1.00E0 nM
[2] = /Mphg Huvec+macrophages, 1.00E1 nM
[3] = /Mphg Huvec+macrophages, 1.00E2 nM
[4] = /Mphg Huvec+macrophages, 1.00E3 nM
[5] = /Mphg Huvec+macrophages, 1.00E4 nM

Cn1ncc2cc(-c3cnc(N)c(Cl)c3N3CCC4(CCNC4=O)CC3)ccc21 [CMPD 3]
CCL2/MCP-1 (/HDFNo, 1.00E4 nM): 0.044 | CD54/ICAM-1 (/HDFNo, 1.00E4 nM): -0.029 | CD106/VCAM-1 (/HDFNo, 1.00E4 nM): 0.030 | Collagen I (/HDFNo, 1.00E4 nM): 0.106 | Collagen III (/HDFNo, 1.00E4 nM): 0.143 | CCL2/MCP-1 [1]: 0.039 | CCL3/MIP-1alpha [1]: 0.008 | CD40 [1]: 0.007 | CD69 [1]: 0.028 | CD106/VCAM-1 [1]: 0.039 | CXCL8/IL-8 [1]: 0.039 | IL-1alpha [1]: 0.034 | M-CSF [1]: -0.015 | SRB [1]: -0.00253 | SRB-Mphg [1]: 0.009 | sIL-10 [1]: 0.013 | CCL2/MCP-1 [2]: -0.0006 | CCL3/MIP-1alpha [2]: -0.011 | CD40 [2]: -0.026 | CD69 [2]: 0.018 | CD106/VCAM-1 [2]: 0.030 | CXCL8/IL-8 [2]: -0.00563 | IL-1alpha [2]: 0.012 | M-CSF [2]: -0.035 | SRB [2]: -0.012 | SRB-Mphg [2]: 0.002 | sIL-10 [2]: 0.075 | CCL2/MCP-1 [3]: -0.061 | CCL3/MIP-1alpha [3]: -0.020 | CD40 [3]: 0.012 | CD69 [3]: 0.043 | CD106/VCAM-1 [3]: 0.019 | CXCL8/IL-8 [3]: -0.007 | IL-1alpha [3]: 0.025 | M-CSF [3]: -0.036 | SRB [3]: -0.017 | SRB-Mphg [3]: 0.012 | sIL-10 [3]: -8.75e-5 | CCL2/MCP-1 [4]: -0.073 | CCL3/MIP-1alpha [4]: -0.030 | CD40 [4]: -0.015 | CD69 [4]: 0.039 | CD106/VCAM-1 [4]: -0.014 | CXCL8/IL-8 [4]: -0.034 | IL-1alpha [4]: -0.038 | M-CSF [4]: -0.070 | SRB [4]: -0.017 | SRB-Mphg [4]: -0.00429 | sIL-10 [4]: -0.159 | CCL2/MCP-1 [5]: -0.116 | CCL3/MIP-1alpha [5]: 0.039 | CD40 [5]: -0.005 | CD69 [5]: 0.023 | CD106/VCAM-1 [5]: 0.022 | CXCL8/IL-8 [5]: 0.007 | IL-1alpha [5]: -0.039 | M-CSF [5]: 0.009 | SRB [5]: -0.059 | SRB-Mphg [5]: -0.013 | sIL-10 [5]: -0.238 | CCL2/MCP-1 (/TH2, 1.00E0 nM): 0.045 | CCL26/Eotaxin-3 (/TH2, 1.00E0 nM): -0.045 | CD38 (/TH2, 1.00E0 nM): 0.012 | CD40 (/TH2, 1.00E0 nM): -0.010 | CD69 (/TH2, 1.00E0 nM): -0.0036 | CD87/uPAR (/TH2, 1.00E0 nM): -0.045 | CD106/VCAM-1 (/TH2, 1.00E0 nM): 0.030 | CXCL8/IL-8 (/TH2, 1.00E0 nM): 0.048 | CXCL9/MIG (/TH2, 1.00E0 nM): 0.020 | Collagen IV (/TH2, 1.00E0 nM): 0.013 | PBMC Cytotoxicity (/TH2, 1.00E0 nM): -0.00216 | SRB (/TH2, 1.00E0 nM): -0.019 | sIL-17A (/TH2, 1.00E0 nM): 0.036 | sIL-17F (/TH2, 1.00E0 nM): -0.022 | CCL2/MCP-1 (/TH2, 1.00E1 nM): 0.002 | CCL26/Eotaxin-3 (/TH2, 1.00E1 nM): -0.124 | CD38 (/TH2, 1.00E1 nM): -0.011 | CD40 (/TH2, 1.00E1 nM): -0.078 | CD69 (/TH2, 1.00E1 nM): -0.011 | CD87/uPAR (/TH2, 1.00E1 nM): -0.094 | CD106/VCAM-1 (/TH2, 1.00E1 nM): 0.034 | CXCL8/IL-8 (/TH2, 1.00E1 nM): -0.056 | CXCL9/MIG (/TH2, 1.00E1 nM): 0.00749 | Collagen IV (/TH2, 1.00E1 nM): 0.029 | PBMC Cytotoxicity (/TH2, 1.00E1 nM): -0.00148 | SRB (/TH2, 1.00E1 nM): -0.057 | sIL-17A (/TH2, 1.00E1 nM): 0.095 | sIL-17F (/TH2, 1.00E1 nM): -0.033 | CCL2/MCP-1 (/TH2, 1.00E2 nM): -0.036 | CCL26/Eotaxin-3 (/TH2, 1.00E2 nM): -0.132 | CD38 (/TH2, 1.00E2 nM): -0.00367 | CD40 (/TH2, 1.00E2 nM): -0.095 | CD69 (/TH2, 1.00E2 nM): -0.007 | CD87/uPAR (/TH2, 1.00E2 nM): -0.133 | CD106/VCAM-1 (/TH2, 1.00E2 nM): 0.023 | CXCL8/IL-8 (/TH2, 1.00E2 nM): -0.038 | CXCL9/MIG (/TH2, 1.00E2 nM): 0.008 | Collagen IV (/TH2, 1.00E2 nM): 0.005 | PBMC Cytotoxicity (/TH2, 1.00E2 nM): -0.011 | SRB (/TH2, 1.00E2 nM): -0.080 | sIL-17A (/TH2, 1.00E2 nM): 0.189 | sIL-17F (/TH2, 1.00E2 nM): 0.137 | CCL2/MCP-1 (/TH2, 1.00E3 nM): -0.046 | CCL26/Eotaxin-3 (/TH2, 1.00E3 nM): -0.134 | CD38 (/TH2, 1.00E3 nM): -0.012 | CD40 (/TH2, 1.00E3 nM): -0.080 | CD69 (/TH2, 1.00E3 nM): -0.021 | CD87/uPAR (/TH2, 1.00E3 nM): -0.141 | CD106/VCAM-1 (/TH2, 1.00E3 nM): 0.028 | CXCL8/IL-8 (/TH2, 1.00E3 nM): -0.057 | CXCL9/MIG (/TH2, 1.00E3 nM): 0.006 | Collagen IV (/TH2, 1.00E3 nM): 0.010 | PBMC Cytotoxicity (/TH2, 1.00E3 nM): -0.023 | SRB (/TH2, 1.00E3 nM): -0.067 | sIL-17A (/TH2, 1.00E3 nM): 0.134 | sIL-17F (/TH2, 1.00E3 nM): -0.079 | CCL2/MCP-1 (/TH2, 1.00E4 nM): -0.053 | CCL26/Eotaxin-3 (/TH2, 1.00E4 nM): -0.136 | CD38 (/TH2, 1.00E4 nM): -0.016 | CD40 (/TH2, 1.00E4 nM): -0.061 | CD69 (/TH2, 1.00E4 nM): -0.044 | CD87/uPAR (/TH2, 1.00E4 nM): -0.146 | CD106/VCAM-1 (/TH2, 1.00E4 nM): 0.003 | CXCL8/IL-8 (/TH2, 1.00E4 nM): -0.053 | CXCL9/MIG (/TH2, 1.00E4 nM): 0.006 | Collagen IV (/TH2, 1.00E4 nM): 0.012 | PBMC Cytotoxicity (/TH2, 1.00E4 nM): -0.036 | SRB (/TH2, 1.00E4 nM): -0.126 | sIL-17A (/TH2, 1.00E4 nM): 0.054 | sIL-17F (/TH2, 1.00E4 nM): -0.082 | CCL26/Eotaxin-3 (BENo, 1.00E0 nM): 0.067 | CD54/ICAM-1 (BENo, 1.00E0 nM): 0.017 | CD87/uPAR (BENo, 1.00E0 nM): 0.077 | CXCL8/IL-8 (BENo, 1.00E0 nM): 0.016 | CXCL9/MIG (BENo, 1.00E0 nM): 0.068 | CXCL10/IP-10 (BENo, 1.00E0 nM): 0.115 | CXCL11/I-TAC (BENo, 1.00E0 nM): 0.039 | EGFR (BENo, 1.00E0 nM): 0.00071 | HLA-DR (BENo, 1.00E0 nM): 0.048 | IL-1alpha (BENo, 1.00E0 nM): 0.048 | Keratin 8/18 (BENo, 1.00E0 nM): 0.051 | MMP-1 (BENo, 1.00E0 nM): 0.028 | MMP-9 (BENo, 1.00E0 nM): 0.043 | PAI-I (BENo, 1.00E0 nM): 0.010 | SRB (BENo, 1.00E0 nM): 0.002 | tPA (BENo, 1.00E0 nM): 0.014 | uPA (BENo, 1.00E0 nM): 0.036 | CCL26/Eotaxin-3 (BENo, 1.00E1 nM): -0.035 | CD54/ICAM-1 (BENo, 1.00E1 nM): -0.015 | CD87/uPAR (BENo, 1.00E1 nM): 0.086 | CXCL8/IL-8 (BENo, 1.00E1 nM): -0.015 | CXCL9/MIG (BENo, 1.00E1 nM): 0.025 | CXCL10/IP-10 (BENo, 1.00E1 nM): 0.020 | CXCL11/I-TAC (BENo, 1.00E1 nM): 0.032 | EGFR (BENo, 1.00E1 nM): -0.005 | HLA-DR (BENo, 1.00E1 nM): 0.084 | IL-1alpha (BENo, 1.00E1 nM): 0.021 | Keratin 8/18 (BENo, 1.00E1 nM): 0.032 | MMP-1 (BENo, 1.00E1 nM): 0.022 | MMP-9 (BENo, 1.00E1 nM): 0.026 | PAI-I (BENo, 1.00E1 nM): 0.003 | SRB (BENo, 1.00E1 nM): 0.000675 | tPA (BENo, 1.00E1 nM): -0.00178 | uPA (BENo, 1.00E1 nM): 0.034 | CCL26/Eotaxin-3 (BENo, 1.00E2 nM): 0.029 | CD54/ICAM-1 (BENo, 1.00E2 nM): -0.086 | CD87/uPAR (BENo, 1.00E2 nM): 0.074 | CXCL8/IL-8 (BENo, 1.00E2 nM): 0.050 | CXCL9/MIG (BENo, 1.00E2 nM): 0.027 | CXCL10/IP-10 (BENo, 1.00E2 nM): 0.029 | CXCL11/I-TAC (BENo, 1.00E2 nM): 0.038 | EGFR (BENo, 1.00E2 nM): -0.028 | HLA-DR (BENo, 1.00E2 nM): 0.002 | IL-1alpha (BENo, 1.00E2 nM): 0.024 | Keratin 8/18 (BENo, 1.00E2 nM): 0.019 | MMP-1 (BENo, 1.00E2 nM): -0.044 | MMP-9 (BENo, 1.00E2 nM): -0.012 | PAI-I (BENo, 1.00E2 nM): -0.079 | SRB (BENo, 1.00E2 nM): -0.00126 | tPA (BENo, 1.00E2 nM): -0.018 | uPA (BENo, 1.00E2 nM): 0.039 | CCL26/Eotaxin-3 (BENo, 1.00E3 nM): 0.016 | CD54/ICAM-1 (BENo, 1.00E3 nM): -0.027 | CD87/uPAR (BENo, 1.00E3 nM): 0.042 | CXCL8/IL-8 (BENo, 1.00E3 nM): -0.000244 | CXCL9/MIG (BENo, 1.00E3 nM): 0.034 | CXCL10/IP-10 (BENo, 1.00E3 nM): 0.016 | CXCL11/I-TAC (BENo, 1.00E3 nM): 0.033 | EGFR (BENo, 1.00E3 nM): 0.028 | HLA-DR (BENo, 1.00E3 nM): 0.049 | IL-1alpha (BENo, 1.00E3 nM): 0.018 | Keratin 8/18 (BENo, 1.00E3 nM): 0.022 | MMP-1 (BENo, 1.00E3 nM): -0.000325 | MMP-9 (BENo, 1.00E3 nM): -0.016 | PAI-I (BENo, 1.00E3 nM): -0.078
